Experimental data published in patent publication US8324390B2, “Tetrazole-substituted anthranilamides as pesticides” (Bayer CropScience AG, priority 2008, dated 2012).
Read-outs that look alike come from different tables or passages of the source.

How the values were obtained:
[1] = log P determination by HPLC (EEC Directive 79/831 Annex V.A8); assay type: physicochemical
Method: The measurements were carried out using an Agilent 1100 LC system with a 50*4.6 Zorbax Eclipse C18 1.8 μm column (oven temperature 55° C., flow rate 2.0 ml/min).
The following mobile phases were used:
Mobile phase A: acetonitrile+1000 μl of formic acid/l
Mobile phase B: Millipore water+900 μl of formic acid/l

[2] = tested on: caterpillars of the armyworm (Spodoptera frugiperda); assay: Spodoptera frugiperda test (SPODFR spray treatment); assay type: in vivo; conditions: Spodoptera frugiperda, foliar, read-out: effect in % (caterpillars killed)
Description: (§1) Solvent: 78.0 parts by weight of acetone

[3] = tested on: green peach aphid (Myzus persicae); assay: Myzus test (MYZUPE spray treatment); assay type: in vivo; conditions: Myzus persicae, foliar, read-out: effect in % (aphids killed)
Description: Solvent: 78 parts by weight of acetone
as §1

[4] = tested on: larvae of the mustard beetle (Phaedon cochleariae); assay: Phaedon test (PHAECO spray treatment); conditions: Phaedon cochleariae, in Brassica rapa, foliar, read-out: effect in % (beetle larvae killed)
[5] = reversed-phase HPLC, Zorbax Eclipse C18 column, determined by HPLC according to EEC Directive 79/831 Annex V.A8, read-out: log P
[6] = application rate 100 g/ha, maize leaf discs
[7] = application rate 100 g/ha, Chinese cabbage leaf discs
[8] = reversed-phase HPLC, Zorbax Eclipse C18 column, by HPLC according to EEC Directive 79/831 Annex V.A8, read-out: log P

| Compound | chromatographic logP [1, 5] | pest or weed control at 100 g/ha [2, 6] | pest or weed control at 100 g/ha [3, 7] | pest or weed control at 100 g/ha [4] | chromatographic logP ([1]; log P) | pest or weed control at 100 g/ha ([2]; in Zea mays) | pest or weed control at 20 g/ha ([3]; in Brassica rapa) | pest or weed control at 100 g/ha ([3]; in Brassica rapa) | chromatographic logP [1, 8] |
| --- | --- | --- | --- | --- | --- | --- | --- | --- | --- |
| CCNC(=O)c1cc(Cl)cc(C)c1NC(=O)c1cc(Cn2nnnc2C(F)(F)F)nn1-c1ncccc1Br [Example 494] | 2.88 | ≥ 80% | ≥ 80% | ≥ 80% |  |  |  |  |  |
| Cc1cc(Cl)cc(C(=O)NC(C)C2CC2)c1NC(=O)c1cc(Cn2nnnc2C(F)F)nn1-c1ncccc1Cl (stereo not shown) [Example 460] |  |  |  | ≥ 80% | 3.07 | ≥ 80% | ≥ 80% |  |  |
| Cc1cc(F)cc(C(=O)NC2CC2)c1NC(=O)c1cc(Cn2nnnc2C(F)(F)F)nn1-c1ncccc1Cl [Example 169] |  |  |  | ≥ 80% | 2.57 | ≥ 80% |  | ≥ 80% |  |
| Cc1cc(C#N)cc(C(=O)NC2CC2)c1NC(=O)c1cc(Cn2nnc(C(F)F)n2)nn1-c1ncccc1Cl [Example 264] |  |  |  | ≥ 80% | 2.39 | ≥ 80% |  | ≥ 80% |  |
| Cc1cc(C#N)cc(C(=O)NCC2CC2)c1NC(=O)c1cc(Cn2nnc(C(F)(F)F)n2)nn1-c1ccccc1Cl [Example 440] | 3.61 | ≥ 80% | ≥ 80% | ≥ 80% |  |  |  |  |  |
| CCNC(=O)c1cc(C#N)cc(C)c1NC(=O)c1cc(Cn2nnnc2C(F)(F)F)nn1-c1ncccc1Br [Example 478] | 2.66 | ≥ 80% | ≥ 80% | ≥ 80% |  |  |  |  |  |
| C=CCNC(=O)c1cc(C#N)cc(C)c1NC(=O)c1cc(Cn2nnc(C(F)(F)F)n2)nn1-c1ncccc1Cl [Example 320] |  |  |  | ≥ 80% | 2.97 | ≥ 80% |  | ≥ 80% |  |
| Cc1cc(Cl)cc(C(=O)NC(C)C)c1NC(=O)c1cc(Cn2nnc(C(F)(F)C(F)(F)F)n2)nn1-c1ncccc1Cl [Example 129] |  |  |  | ≥ 80% | 3.94 | ≥ 80% |  | ≥ 80% |  |
| C=C(C)CNC(=O)c1cc(C#N)cc(C)c1NC(=O)c1cc(Cn2nnc(C(F)(F)F)n2)nn1-c1ncccc1Cl [Example 338] |  |  |  | ≥ 80% | 3.21 | ≥ 80% |  | ≥ 80% |  |
| Cc1cc(C#N)cc(C(=O)NC(C)C)c1NC(=O)c1cc(Cn2nnc(C(F)(F)F)n2)nn1-c1ccccc1Cl [Example 341] |  | ≥ 80% | ≥ 80% | ≥ 80% |  |  |  |  | 3.6 |
| Cc1cc(C#N)cc(C(=O)NC2CC2)c1NC(=O)c1cc(Cn2nnc(C(F)(F)C(F)(F)F)n2)nn1-c1ncccc1Cl [Example 214] |  |  |  | ≥ 80% | 3.26 | ≥ 80% |  | ≥ 80% |  |
| Cc1cc(C#N)cc(C(=O)NCc2ccco2)c1NC(=O)c1cc(Cn2nnc(C(F)(F)F)n2)nn1-c1ncccc1Cl [Example 77] |  |  |  | ≥ 80% | 3.14 | ≥ 80% |  | ≥ 80% |  |
| Cc1cc(I)cc(C(N)=O)c1NC(=O)c1cc(Cn2nnnc2C(F)(F)F)nn1-c1ncccc1Br [Example 497] | 2.63 | ≥ 80% | ≥ 80% | ≥ 80% |  |  |  |  |  |
| Cc1cc(C#N)cc(C(=O)NC(C)(C)C)c1NC(=O)c1cc(Cn2nnnc2C(F)(F)C(F)(F)F)nn1-c1ncccc1Br [Example 518] | 3.47 | ≥ 80% | ≥ 80% | ≥ 80% |  |  |  |  |  |
| CNC(=O)c1cc(C#N)cc(C)c1NC(=O)c1cc(Cn2nnnc2C(F)(F)F)nn1-c1ncccc1Br [Example 477] | 2.47 | ≥ 80% | ≥ 80% | ≥ 80% |  |  |  |  |  |
| Cc1cc(I)cc(C(=O)NC(C)(C)C)c1NC(=O)c1cc(Cn2nnc(C(F)(F)F)n2)nn1-c1ncccc1C(F)(F)F [Example 242] |  | ≥ 80% | ≥ 80% | ≥ 80% |  |  |  |  | 4.25 |
| CC(NC(=O)c1cc(Cl)cc(Cl)c1NC(=O)c1cc(Cn2nnnc2C(F)F)nn1-c1ncccc1Cl)C1CC1 (stereo not shown) [Example 465] |  |  |  | ≥ 80% | 3.02 | ≥ 80% |  | ≥ 80% |  |

| Compound | chromatographic logP [1, 5] | pest or weed control at 100 g/ha [2, 6] | pest or weed control at 100 g/ha [3, 7] | pest or weed control at 100 g/ha [4] | chromatographic logP ([1]; log P) | pest or weed control at 100 g/ha ([2]; in Zea mays) | pest or weed control at 20 g/ha ([3]; in Brassica rapa) | pest or weed control at 100 g/ha ([3]; in Brassica rapa) | chromatographic logP [1, 8] |
| --- | --- | --- | --- | --- | --- | --- | --- | --- | --- |
| Cc1cc(C#N)cc(C(=O)NCC2CC2)c1NC(=O)c1cc(Cn2nnc(C(F)(F)F)n2)nn1-c1ncccc1Cl [Example 23] |  |  |  | ≥ 80% | 3.13 | ≥ 80% |  | ≥ 80% |  |
| CSC[C@H](C)NC(=O)c1cc(C#N)cc(C)c1NC(=O)c1cc(Cn2nnc(C(F)(C(F)(F)F)C(F)(F)F)n2)nn1-c1ncccc1Cl [Example 376] |  | ≥ 80% | ≥ 80% | ≥ 80% |  |  |  |  | 3.96 |
| Cc1cc(Cl)cc(C(=O)NC(C)C)c1NC(=O)c1cc(Cn2nnnc2C(F)(F)C(F)(F)F)nn1-c1ncccc1Cl [Example 201] |  |  |  | ≥ 80% | 3.59 | ≥ 80% |  | ≥ 80% |  |
| CSC[C@H](C)NC(=O)c1cc(Cl)cc(C)c1NC(=O)c1cc(Cn2nnc(C(F)(C(F)(F)F)C(F)(F)F)n2)nn1-c1ncccc1Cl [Example 361] |  | ≥ 80% | ≥ 80% | ≥ 80% |  |  |  |  | 4.39 |
| Cc1cc(C#N)cc(C(=O)NC(C2CC2)C2CC2)c1NC(=O)c1cc(Cn2nnnc2C(F)(F)F)nn1-c1ncccc1Cl [Example 196] |  |  |  | ≥ 80% | 3.28 | ≥ 80% |  | ≥ 80% |  |
| NC(=O)c1cc(Cl)cc(Cl)c1NC(=O)c1cc(Cn2nnc(C(F)F)n2)nn1-c1ncccc1Cl [Example 305] |  |  |  | ≥ 80% | 2.31 | ≥ 80% |  | ≥ 80% |  |
| CNC(=O)c1cc(C#N)cc(C)c1NC(=O)c1cc(Cn2nnc(C(F)(F)F)n2)nn1-c1ccccc1Br [Example 349] |  | ≥ 80% | ≥ 80% | ≥ 80% |  |  |  |  | 3.15 |
| CSC[C@H](C)NC(=O)c1cc(Br)cc(C)c1NC(=O)c1cc(Cn2nnc(C(F)(F)F)n2)nn1-c1ncccc1Cl [Example 42] |  |  |  | ≥ 80% | 3.77 | ≥ 80% |  | ≥ 80% |  |
| CNC(=O)c1cc(Cl)cc(C)c1NC(=O)c1cc(Cn2nnnc2C(F)(F)F)nn1-c1ncccc1Cl [Example 161] |  |  |  | ≥ 80% | 2.63 | ≥ 80% |  | ≥ 80% |  |
| Cc1cc(Br)cc(C(=O)NC(C)(C)C)c1NC(=O)c1cc(Cn2nnc(C(F)(F)C(F)(F)F)n2)nn1-c1ncccc1Cl [Example 219] |  |  |  | ≥ 80% | 4.36 | ≥ 80% |  | ≥ 80% |  |
| N#CCNC(=O)c1cc(Cl)cc(Cl)c1NC(=O)c1cc(Cn2nnc(C(F)F)n2)nn1-c1ncccc1Cl [Example 290] |  |  |  | ≥ 80% | 2.48 | ≥ 80% |  | ≥ 80% |  |
| Cc1cc(Cl)cc(C(=O)NC(C)(C)C)c1NC(=O)c1cc(C(C)n2nnnc2C(F)(F)F)nn1-c1ncccc1Cl (stereo not shown) [Example 511] |  |  |  | ≥ 80% | 3.75 | ≥ 80% |  | ≥ 80% |  |
| COC(C)(C)CNC(=O)c1cc(C#N)cc(C)c1NC(=O)c1cc(Cn2nnc(C(F)(F)F)n2)nn1-c1ncccc1Cl [Example 95] |  |  |  | ≥ 80% | 3.12 | ≥ 80% |  | ≥ 80% |  |
| CSC[C@H](C)NC(=O)c1cc(Cl)cc(Cl)c1NC(=O)c1cc(Cn2nnc(C(F)(F)C(F)(F)F)n2)nn1-c1ncccc1Cl [Example 154] |  |  |  | ≥ 80% | 4.02 | ≥ 80% |  | ≥ 80% |  |
| Cc1cc(I)cc(C(=O)NC2CC2)c1NC(=O)c1cc(Cn2nnnc2C(F)(F)F)nn1-c1ncccc1Cl [Example 174] |  |  |  | ≥ 80% | 3.12 | ≥ 80% |  | ≥ 80% |  |
| Cc1cc(I)cc(C(N)=O)c1NC(=O)c1cc(Cn2nnc(C(F)(F)F)n2)nn1-c1ncccc1Cl [Example 67] |  |  |  | ≥ 80% | 2.95 | ≥ 80% |  | ≥ 80% |  |
| Cc1cc(Br)cc(C(=O)NC2CC2)c1NC(=O)c1cc(Cn2nnnc2C(F)(F)F)nn1-c1ncccc1Cl [Example 181] |  |  |  | ≥ 80% | 2.99 | ≥ 80% |  | ≥ 80% |  |
